Measurements published in patent US20240109972A1, “ANTIBODY AND TAXANE COMBINATION THERAPY” (Genmab A/S, priority 2020, published 2024).

Assays:
cervical cancer = conditions: first-line, combined with paclitaxel and platinum (cisplatin or carboplatin) or paclitaxel and topotecan; cited from earlier work
[1] = test system: MC38 mouse colon cancer cells; format: in vivo; conditions: mbsIgG2a-PD-L1×4-1BB 0.5 mg/kg 2QW×3, docetaxel 10 mg/kg QW×3; FIG. 7A
Description: MC38 mouse colon cancer cells were cultured in Dulbecco's Modified Eagle Medium supplemented with 10% heat-inactivated fetal bovine serum at 37° C., 5% CO2. MC38 cells were harvested from a cell culture growing in log-phase and quantified.
MC38 cells (1×10^6 tumor cells in 100 μL PBS) were injected subcutaneously in the right lower flank of female C57BL/6 mice (obtained from Vital River Laboratories Research Models and Services; age 6-8 weeks at start of experiment).
Tumor growth was evaluated three times per week using a caliper. Tumor volumes (mm^3) were calculated from caliper measurements as ([length]×[width]^2)/2, where the length is the longest tumor dimension, and the width is the longest tumor dimension perpendicular to the length.
Mice were randomized into groups (n=10/group) with an average tumor volume of 64 mm^3 prior to treatment. […]
The mice were monitored daily for clinical signs of illness. […]

[2] = GEN1046 in combination with docetaxel in metastatic NSCLC subjects, adverse effects; format: in vivo, human
Description: Docetaxel was administered at a dose of 55 mg/m^2 or 75 mg/m^2 depending on the number of prior Dose Limiting Toxicities observed. The maximum tested dose of docetaxel was be 75 mg/m^2.
Subjects with a histological or cytological diagnosis of non-squamous NSCLC must not have an EGFR-sensitizing mutation and/or ALK translocation/ROS1 rearrangement. EGFR sensitizing mutations are those mutations that are amenable to treatment with an approved TKI. Documentation of EGFR and ALK status should be available per local assessment.

## bevacizumab
Cervical cancer
  Median OS: approximately 18 months
  ORR: 48%

## CC(=O)O[C@@]12CO[C@@H]1C[C@H](O)[C@@]1(C)C(=O)[C@H](O)C3=C(C)[C@@H](OC(=O)[C@H](O)[C@@H](NC(=O)OC(C)(C)C)c4ccccc4)C[C@@](O)([C@@H](OC(=O)c4ccccc4)[C@H]21)C3(C)C [Docetaxel, reference compound]
[1]
  Tumor outgrowth: comparable to the PBS-treated group
[2]; 55 mg/m^2 Docetaxel + GEN1046
  Anemia Grade 1, Docetaxel-related: 1
  Anemia Grade 2, Docetaxel-related: 2
  Anemia Grade 3, Docetaxel-related: 2
  Anemia Grade 4, Docetaxel-related: 0
  Anemia Grade 5, Docetaxel-related: 0
  Blood alkaline phosphatase increase Grade 1, Docetaxel-related: 0
  Blood alkaline phosphatase increase Grade 2, Docetaxel-related: 1
  Blood alkaline phosphatase increase Grade 3, Docetaxel-related: 1
  Blood alkaline phosphatase increase Grade 4, Docetaxel-related: 0
  Blood alkaline phosphatase increase Grade 5, Docetaxel-related: 0
  Dysgeusia Grade 1, Docetaxel-related: 0
  Dysgeusia Grade 2, Docetaxel-related: 1
  Dysgeusia Grade 3, Docetaxel-related: 0
  Dysgeusia Grade 4, Docetaxel-related: 0
  Dysgeusia Grade 5, Docetaxel-related: 0
  Fatigue Grade 1, Docetaxel-related: 0
  Fatigue Grade 2, Docetaxel-related: 2
  Fatigue Grade 3, Docetaxel-related: 1
  Fatigue Grade 4, Docetaxel-related: 0
  Fatigue Grade 5, Docetaxel-related: 0
  Febrile neutropenia Grade 1, Docetaxel-related: 0
  Febrile neutropenia Grade 2, Docetaxel-related: 0
  Febrile neutropenia Grade 3, Docetaxel-related: 1
  Febrile neutropenia Grade 4, Docetaxel-related: 0
  Febrile neutropenia Grade 5, Docetaxel-related: 0
  Hypokalemia Grade 1, Docetaxel-related: 0
  Hypokalemia Grade 2, Docetaxel-related: 1
  Hypokalemia Grade 3, Docetaxel-related: 0
  Hypokalemia Grade 4, Docetaxel-related: 0
  Hypokalemia Grade 5, Docetaxel-related: 0
  Hypomagnesaemia Grade 1, Docetaxel-related: 1
  Hypomagnesaemia Grade 2, Docetaxel-related: 0
  Hypomagnesaemia Grade 3, Docetaxel-related: 0
  Hypomagnesaemia Grade 4, Docetaxel-related: 0
  Hypomagnesaemia Grade 5, Docetaxel-related: 0
  Hyponatremia Grade 1, Docetaxel-related: 1
  Hyponatremia Grade 2, Docetaxel-related: 0
  Hyponatremia Grade 3, Docetaxel-related: 0
  Hyponatremia Grade 4, Docetaxel-related: 0
  Hyponatremia Grade 5, Docetaxel-related: 0
  Infusion site extravasation Grade 1, Docetaxel-related: 1
  Infusion site extravasation Grade 2, Docetaxel-related: 0
  Infusion site extravasation Grade 3, Docetaxel-related: 0
  Infusion site extravasation Grade 4, Docetaxel-related: 0
  Infusion site extravasation Grade 5, Docetaxel-related: 0
  Nausea Grade 1, Docetaxel-related: 1
  Nausea Grade 2, Docetaxel-related: 0
  Nausea Grade 3, Docetaxel-related: 0
  Nausea Grade 4, Docetaxel-related: 0
  Nausea Grade 5, Docetaxel-related: 0
  Neutrophil count decreased Grade 1, Docetaxel-related: 0
  Neutrophil count decreased Grade 2, Docetaxel-related: 0
  Neutrophil count decreased Grade 3, Docetaxel-related: 0
  Neutrophil count decreased Grade 4, Docetaxel-related: 1
  Neutrophil count decreased Grade 5, Docetaxel-related: 0
  Pyrexia Grade 1, Docetaxel-related: 1
  Pyrexia Grade 2, Docetaxel-related: 1
  Pyrexia Grade 3, Docetaxel-related: 0
  Pyrexia Grade 4, Docetaxel-related: 0
  Pyrexia Grade 5, Docetaxel-related: 0
  Vomiting Grade 1, Docetaxel-related: 0
  Vomiting Grade 2, Docetaxel-related: 2
  Vomiting Grade 3, Docetaxel-related: 0
  Vomiting Grade 4, Docetaxel-related: 0
  Vomiting Grade 5, Docetaxel-related: 0
  White blood cell count decreased Grade 1, Docetaxel-related: 0
  White blood cell count decreased Grade 2, Docetaxel-related: 0
  White blood cell count decreased Grade 3, Docetaxel-related: 0
  White blood cell count decreased Grade 4, Docetaxel-related: 1
  White blood cell count decreased Grade 5, Docetaxel-related: 0
[2]; 75 mg/m^2 Docetaxel + GEN1046
  Anaemia Grade 1, Docetaxel-related: 0
  Anaemia Grade 2, Docetaxel-related: 0
  Anaemia Grade 3, Docetaxel-related: 1
  Anaemia Grade 4, Docetaxel-related: 0
  Anaemia Grade 5, Docetaxel-related: 0
  Diarrhea Grade 1, Docetaxel-related: 1
  Diarrhea Grade 2, Docetaxel-related: 0
  Diarrhea Grade 3, Docetaxel-related: 0
  Diarrhea Grade 4, Docetaxel-related: 0
  Diarrhea Grade 5, Docetaxel-related: 0
  Dyspnea Grade 1, Docetaxel-related: 0
  Dyspnea Grade 2, Docetaxel-related: 0
  Dyspnea Grade 3, Docetaxel-related: 0
  Dyspnea Grade 4, Docetaxel-related: 1
  Dyspnea Grade 5, Docetaxel-related: 0
  Fatigue Grade 1, Docetaxel-related: 1
  Fatigue Grade 2, Docetaxel-related: 2
  Fatigue Grade 3, Docetaxel-related: 0
  Fatigue Grade 4, Docetaxel-related: 0
  Fatigue Grade 5, Docetaxel-related: 0
  Gastrooesophageal reflux disease Grade 1, Docetaxel-related: 0
  Gastrooesophageal reflux disease Grade 2, Docetaxel-related: 1
  Gastrooesophageal reflux disease Grade 3, Docetaxel-related: 0
  Gastrooesophageal reflux disease Grade 4, Docetaxel-related: 0
  Gastrooesophageal reflux disease Grade 5, Docetaxel-related: 0
  Hiccups Grade 1, Docetaxel-related: 0
  Hiccups Grade 2, Docetaxel-related: 1
  Hiccups Grade 3, Docetaxel-related: 0
  Hiccups Grade 4, Docetaxel-related: 0
  Hiccups Grade 5, Docetaxel-related: 0
  Lacrimation increased Grade 1, Docetaxel-related: 1
  Lacrimation increased Grade 2, Docetaxel-related: 0
  Lacrimation increased Grade 3, Docetaxel-related: 0
  Lacrimation increased Grade 4, Docetaxel-related: 0
  Lacrimation increased Grade 5, Docetaxel-related: 0
  Nausea Grade 1, Docetaxel-related: 1
  Nausea Grade 2, Docetaxel-related: 2
  Nausea Grade 3, Docetaxel-related: 0
  Nausea Grade 4, Docetaxel-related: 0
  Nausea Grade 5, Docetaxel-related: 0
  Neutrophil count decreased Grade 1, Docetaxel-related: 0
  Neutrophil count decreased Grade 2, Docetaxel-related: 0
  Neutrophil count decreased Grade 3, Docetaxel-related: 1
  Neutrophil count decreased Grade 4, Docetaxel-related: 1
  Neutrophil count decreased Grade 5, Docetaxel-related: 0
  Not coded: periphery sensory neuropathy Grade 1, Docetaxel-related: 1
  Not coded: periphery sensory neuropathy Grade 2, Docetaxel-related: 0
  Not coded: periphery sensory neuropathy Grade 3, Docetaxel-related: 0
  Not coded: periphery sensory neuropathy Grade 4, Docetaxel-related: 0
  Not coded: periphery sensory neuropathy Grade 5, Docetaxel-related: 0
  Vomiting Grade 1, Docetaxel-related: 1
  Vomiting Grade 2, Docetaxel-related: 0
  Vomiting Grade 3, Docetaxel-related: 0
  Vomiting Grade 4, Docetaxel-related: 0
  Vomiting Grade 5, Docetaxel-related: 0
[2]; GEN1046 in combination with Docetaxel
  Hepatotoxicity: No reported drug-related hepatoxicities
